From patent US9580444B2, “Polycyclic pyrazolinone derivative and herbicide comprising same as effective component thereof” (priority 2013, dated 2017)

Tests used:
Format in all cases: in vivo
Conditions in all cases: 500 g a.i/ha, foliage treatment after emergence, about 14 days after treatment, score 0-5
[1] = test system: Chenopodium album (common lambsquarters); assay: Test Example-4: herbicidal effect by a foliage treatment after weeds are generated under upland field conditions
Description: (§1) Using the formulation prepared according to the methods described above, the herbicidal effect of the bicyclic pyrazolinone derivative of the invention according to the methods shown in Test Examples below was examined. The herbicidal effect with respect to the test weeds or the phytotoxicity with respect to the test crops was examined according to the following criteria, and evaluated in six stage scores of 0 to 5. A vat having an area of 65 cm^2 and a depth of 2 cm was filled with upland soil, then, seeds of Amaranthus viridis (green amaranthus), Abutilon theophrasti (velvetleaf), Chenopodium album (common lambsquarters), […]. While watering was suitably performed on there, the seeds were grown for 14 days. A wettable powder or an emulsifiable concentrate of the compound of the present invention prepared according to Formulation Example was diluted, and a spray treatment was uniformly performed on the foliage portion of the plant so as to be a predetermined dosage in the amount of water of 4000 L per hectare. The herbicidal effect with respect to the test weeds and the phytotoxicity with respect to corn about 14 days after the treatment were evaluated according to the evaluation criteria in six stages of 0 to 5 described above.

[2] = test system: Abutilon theophrasti (velvetleaf); assay: as above
Description: as §1

[3] = test system: Amaranthus viridis (green amaranthus); assay: as above
Description: as §1

[4] = test system: corn; assay: Test Example-4: phytotoxicity by a foliage treatment after weeds are generated under upland field conditions
Description: as §1

| SMILES | Herbicidal effect Chenopodium album [1] | Herbicidal effect Abutilon theophrast [2] | Herbicidal effect Amaranthus viridis [3] | Phytotoxicity Corn [4] |
| --- | --- | --- | --- | --- |
| C=CCOc1cc(-c2c(Cl)n3n(c2=O)CCCC3)ccc1Cl [Example 1-59] | 5 (Herbicidal effect/phytotoxicity was 90% or greater) | 5 (Herbicidal effect/phytotoxicity was 90% or greater) | 5 (Herbicidal effect/phytotoxicity was 90% or greater) | 0 (Herbicidal effect/phytotoxicity was 0% to 10%) |
| CCOC(=CC(=O)OCC(C)C)COc1cc(-c2c(Cl)n3n(c2=O)CCCC3)c(F)cc1Cl [Example 2-27] | 5 (Herbicidal effect/phytotoxicity was 90% or greater) | 5 (Herbicidal effect/phytotoxicity was 90% or greater) | 5 (Herbicidal effect/phytotoxicity was 90% or greater) | 0 (Herbicidal effect/phytotoxicity was 0% to 10%) |
| C=C(COc1cc(-c2c(Cl)n3n(c2=O)CCCC3)c(F)cc1Cl)c1cccc(Cl)c1 [Example 1-228] | 5 (Herbicidal effect/phytotoxicity was 90% or greater) | 5 (Herbicidal effect/phytotoxicity was 90% or greater) | 5 (Herbicidal effect/phytotoxicity was 90% or greater) | 1 (Herbicidal effect/phytotoxicity was 10% to 30%) |
| CC1(COc2cc(-c3c(Cl)n4n(c3=O)CCCC4)c(F)cc2Cl)CC(c2ccc(Cl)cc2)=NO1 (stereo not shown) [Example 4-8] | 5 (Herbicidal effect/phytotoxicity was 90% or greater) | 5 (Herbicidal effect/phytotoxicity was 90% or greater) | 5 (Herbicidal effect/phytotoxicity was 90% or greater) | 2 (Herbicidal effect/phytotoxicity was 30% to 50%) |
| Nc1cc(-c2c(Cl)n3n(c2=O)CCCC3)c(F)cc1Cl [Example 5-11] | 5 (Herbicidal effect/phytotoxicity was 90% or greater) | 5 (Herbicidal effect/phytotoxicity was 90% or greater) | 5 (Herbicidal effect/phytotoxicity was 90% or greater) | 1 (Herbicidal effect/phytotoxicity was 10% to 30%) |
| CCS(=O)(=O)Nc1cc(-c2c(Cl)n3n(c2=O)CCCC3)c(F)cc1Cl [Example 5-51] | 5 (Herbicidal effect/phytotoxicity was 90% or greater) | 5 (Herbicidal effect/phytotoxicity was 90% or greater) | 5 (Herbicidal effect/phytotoxicity was 90% or greater) | 0 (Herbicidal effect/phytotoxicity was 0% to 10%) |
| CCOC(=O)C=C(COc1cc(-c2c(Cl)n3n(c2=O)CCCC3)c(F)cc1Cl)OC (mixture of isomers) [Example 2-14] | 5 (Herbicidal effect/phytotoxicity was 90% or greater) | 5 (Herbicidal effect/phytotoxicity was 90% or greater) | 5 (Herbicidal effect/phytotoxicity was 90% or greater) | 0 (Herbicidal effect/phytotoxicity was 0% to 10%) |
| CC(C)Oc1cccc(Oc2cc(-c3c(Cl)n4n(c3=O)CCCC4)c(F)cc2Cl)c1 [Example 3-11] | 5 (Herbicidal effect/phytotoxicity was 90% or greater) | 5 (Herbicidal effect/phytotoxicity was 90% or greater) | 5 (Herbicidal effect/phytotoxicity was 90% or greater) | 0 (Herbicidal effect/phytotoxicity was 0% to 10%) |
| COc1cc(C)ccc1Oc1cc(-c2c(Cl)n3n(c2=O)CCCC3)c(F)cc1Cl [Example 3-41] | 5 (Herbicidal effect/phytotoxicity was 90% or greater) | 5 (Herbicidal effect/phytotoxicity was 90% or greater) | 5 (Herbicidal effect/phytotoxicity was 90% or greater) | 1 (Herbicidal effect/phytotoxicity was 10% to 30%) |
| CC(C)Oc1ccccc1Oc1cc(-c2c(Cl)n3n(c2=O)CCCC3)c(F)cc1Cl [Example 3-8] | 5 (Herbicidal effect/phytotoxicity was 90% or greater) | 5 (Herbicidal effect/phytotoxicity was 90% or greater) | 5 (Herbicidal effect/phytotoxicity was 90% or greater) | 0 (Herbicidal effect/phytotoxicity was 0% to 10%) |
| C=CCOc1cc(C)ccc1Oc1cc(-c2c(Cl)n3n(c2=O)CCCC3)c(F)cc1Cl [Example 3-42] | 5 (Herbicidal effect/phytotoxicity was 90% or greater) | 5 (Herbicidal effect/phytotoxicity was 90% or greater) | 5 (Herbicidal effect/phytotoxicity was 90% or greater) | 0 (Herbicidal effect/phytotoxicity was 0% to 10%) |
| C=CCOC(=O)C=C(COc1ccccc1Oc1cc(-c2c(Cl)n3n(c2=O)CCCC3)c(F)cc1Cl)OC [Example 3-24] | 5 (Herbicidal effect/phytotoxicity was 90% or greater) | 5 (Herbicidal effect/phytotoxicity was 90% or greater) | 5 (Herbicidal effect/phytotoxicity was 90% or greater) | 0 (Herbicidal effect/phytotoxicity was 0% to 10%) |
| CCOC(=O)COc1ccccc1Oc1cc(-c2c(Cl)n3n(c2=O)CCCC3)c(F)cc1Cl [Example 3-17] | 5 (Herbicidal effect/phytotoxicity was 90% or greater) | 5 (Herbicidal effect/phytotoxicity was 90% or greater) | 5 (Herbicidal effect/phytotoxicity was 90% or greater) | 0 (Herbicidal effect/phytotoxicity was 0% to 10%) |
| C#CC(C)Oc1cc(-c2c(Cl)n3n(c2=O)CCCC3)ccc1Cl (stereo not shown) [Example 1-67] | 5 (Herbicidal effect/phytotoxicity was 90% or greater) | 5 (Herbicidal effect/phytotoxicity was 90% or greater) | 5 (Herbicidal effect/phytotoxicity was 90% or greater) | 0 (Herbicidal effect/phytotoxicity was 0% to 10%) |
| COc1cc(-c2c(Cl)n3n(c2=O)CCCCC3)c(F)cc1Cl [Example 1-141] | 5 (Herbicidal effect/phytotoxicity was 90% or greater) | 5 (Herbicidal effect/phytotoxicity was 90% or greater) | 5 (Herbicidal effect/phytotoxicity was 90% or greater) | 0 (Herbicidal effect/phytotoxicity was 0% to 10%) |
| C=C(C)COc1ccccc1Oc1cc(-c2c(Cl)n3n(c2=O)CCCC3)c(F)cc1Cl [Example 3-22] | 5 (Herbicidal effect/phytotoxicity was 90% or greater) | 5 (Herbicidal effect/phytotoxicity was 90% or greater) | 5 (Herbicidal effect/phytotoxicity was 90% or greater) | 0 (Herbicidal effect/phytotoxicity was 0% to 10%) |
| COc1ccccc1Oc1cc(-c2c(Cl)n3n(c2=O)CCCC3)c(F)cc1Cl [Example 3-2] | 5 (Herbicidal effect/phytotoxicity was 90% or greater) | 5 (Herbicidal effect/phytotoxicity was 90% or greater) | 5 (Herbicidal effect/phytotoxicity was 90% or greater) | 2 (Herbicidal effect/phytotoxicity was 30% to 50%) |
| C#CCOc1cc(C)ccc1Oc1cc(-c2c(Cl)n3n(c2=O)CCCC3)c(F)cc1Cl [Example 3-43] | 5 (Herbicidal effect/phytotoxicity was 90% or greater) | 5 (Herbicidal effect/phytotoxicity was 90% or greater) | 5 (Herbicidal effect/phytotoxicity was 90% or greater) | 0 (Herbicidal effect/phytotoxicity was 0% to 10%) |
| C#CCOc1cc(F)ccc1Oc1cc(-c2c(Cl)n3n(c2=O)CCCC3)c(F)cc1Cl [Example 3-35] | 5 (Herbicidal effect/phytotoxicity was 90% or greater) | 5 (Herbicidal effect/phytotoxicity was 90% or greater) | 5 (Herbicidal effect/phytotoxicity was 90% or greater) | 1 (Herbicidal effect/phytotoxicity was 10% to 30%) |
